Counter-ions that a name gives are not always drawn.

Among the data in patent US20240092799A1, “MNK INHIBITORS” (Hepagene Therapeutics (HK) Limited, priority 2020, published 2024) are IC50 values, retold here.

For one assay, the system named is TMD-8 cell p-IF4E. The assay is described as follows: p-eIF4E Signaling Cellular Assay (CisBio HTRF) in TMD-8 cells. Type of assay: cell-based. The settings on record: 40 min treatment. How it is done:
p-eIF4E Signaling Cellular Assay. Phosphorylated eIF4E is assayed using the CisBio p-Eif4E HTRF assay kit. Reagents and equipment used in the assay are listed below, followed by the protocol.
Cell medium: RPMI 1640+10% FBS+1*PS, TMD-8 were cultured as recommended and assayed in exponential growth phase. • a) Plate 30 μL of cells in 384 white assay plate in appropriate medium and proper cell density (20 k/well) based on Optimization at 37° C. under 5% CO2 atmosphere • b) Dispense 90 nL of compounds diluted in DMSO and treat for 40 min at 37° C. under 5% CO2 atmosphere • c) Remove cell supernatant by flicking the plate • d) Add 16 μL of supplemented lysis buffer (1×) for 30 minutes at RT under shaking • e) Add 4 μL of premixed antibody solutions prepared in the detection buffer. Cover the plate with a plate sealer. Incubate 0/N at RT • f) Read the fluorescence emission at 665 nm and 620 nm on Envision • g) Data analysis • (1) Ratio […] signal is calculated for each well • (2) % Inhibition is calculated as follow:
% inhibition=100−(Signalcmpd-SignalAve_PC)/(SignalAve_VC-SignalAve_PC)×100. • (3) Calculate IC50 and Plot effect-dose curve of cmpds:
Calculate IC50 by fitting % Inhibition values and log of compound concentrations to nonlinear regression (dose response−variable slope) with Graphpad 8.0.
Y=Bottom+(Top−Bottom)/(1+10^((Log IC50−X)*Hill Slope)) • X: log of Inhibitor concentration; Y: % Inhibition.

The next assay concerns the target MNK2 (Homo sapiens (Human), UniProt Q9HBH9). Nature of the assay: MNK Biochemical Enzymatic Assay (ADP-Glo), MNK2 binding assay. In a few lines:
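Human MNK1 or MNK2 was preincubated with a 10-point, 1:3 serial dilution of compound for 15 min at 25 °C. Substrate was then added and the reaction ran 60 min at 25 °C. ADP formed was read by ADP-Glo luminescence, and IC50 came from non-linear regression.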

Sequence of MNK2 (Q9HBH9 whole entry): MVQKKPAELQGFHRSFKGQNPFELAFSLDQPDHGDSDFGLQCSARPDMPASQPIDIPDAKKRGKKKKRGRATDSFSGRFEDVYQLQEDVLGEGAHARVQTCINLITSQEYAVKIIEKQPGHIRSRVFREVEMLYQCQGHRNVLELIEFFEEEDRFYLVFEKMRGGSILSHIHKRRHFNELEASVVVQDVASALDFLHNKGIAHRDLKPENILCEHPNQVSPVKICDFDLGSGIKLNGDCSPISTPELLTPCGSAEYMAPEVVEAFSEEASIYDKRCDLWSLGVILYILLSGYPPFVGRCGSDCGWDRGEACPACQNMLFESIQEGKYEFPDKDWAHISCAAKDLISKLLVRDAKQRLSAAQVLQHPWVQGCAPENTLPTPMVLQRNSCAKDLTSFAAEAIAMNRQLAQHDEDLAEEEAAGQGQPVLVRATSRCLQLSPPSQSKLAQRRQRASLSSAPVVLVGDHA

On to `Cn1cc(Nc2cc(Nc3cc4c(s3)C(=O)NC43CCCCC3)ncn2)cn1` [Compound XXIV-K, 2′-((6-((1-methyl-1H-pyrazol-4-yl)amino)pyrimidin-4-yl)amino)spiro[cyclohexane-1,4′-thieno[2,3-c]pyrrol]-6′(5′H)-one], for which the IC50 in the assay with TMD-8 cell p-IF4E (Homo sapiens, TMD8, 40 min) lay in the range of 100 to 1000 nM; on MNK2, 0.1 to 10 nM.
For `Cc1cc(Nc2cc(N)ncn2)[n+]([O-])c2c1C(=O)NC21CCCCC1` [Compound XXIX, 2′-((6-Aminopyrimidin-4-yl)amino)-4′-methyl-5′-oxo-5′,6′-dihydrospiro [cyclohexane-1,7′-pyrrolo[3,4-b]pyridine] 1′-oxide], the half-inhibitory concentration (IC50) in the assay on TMD-8 cell p-IF4E (Homo sapiens, TMD8, 40 min) is 10 to 100 nM; at MNK2, 0.1 to 10 nM.
The like results for `Cc1cc(Nc2cc(N[C@H]3CCOC3)ncn2)[n+]([O-])c2c1C(=O)NC21CCCCC1` [Compound XXIX-A, (S)-4′-methyl-5′-oxo-2′-((6-((tetrahydrofuran-3-yl)amino)pyrimidin-4-yl)amino)-5′,6′-dihydrospiro[cyclohexane-1,7′-pyrrolo[3,4-b]pyridine] 1′-oxide] were, in that order, 0.1 to 10 nM and 0.1 to 10 nM.
With `CC(=O)N(C)c1cccc(Nc2cc(Nc3cc(C)c4c([n+]3[O-])C3(CCCCC3)NC4=O)ncn2)n1` [Compound XXIX-AA, 4′-methyl-2′-((6-((6-(N-methylacetamido)pyridin-2-yl)amino)pyrimidin-4-yl)amino)-5′-oxo-5′,6′-dihydrospiro[cyclohexane-1,7′-pyrrolo[3,4-b]pyridine] 1′-oxide], the IC50 in the assay with TMD-8 cell p-IF4E (Homo sapiens, TMD8, 40 min) was 0.1 to 10 nM; on MNK2, 0.1 to 10 nM.
As to `Cc1ccc(Nc2cc(Nc3cc(C)c4c([n+]3[O-])C3(CCCCC3)NC4=O)ncn2)nc1` [Compound XXIX-AAA, 4′-methyl-2′-((6-((5-methylpyridin-2-yl)amino)pyrimidin-4-yl)amino)-5′-oxo-5′,6′-dihydrospiro[cyclohexane-1,7′-pyrrolo[3,4-b]pyridine] 1′-oxide], the 50% inhibitory concentration (IC50) was 0.1 to 10 nM in the assay with TMD-8 cell p-IF4E (Homo sapiens, TMD8, 40 min) and 0.1 to 10 nM at MNK2.
Consider `Cc1cc(Nc2cc(N[C@H]3C[C@@](C)(O)C3)ncn2)[n+]([O-])c2c1C(=O)NC21CCCCC1` [Compound XXIX-AAC, 4′-methyl-5′-oxo-2′-[(6-{[trans-3-hydroxy-3-methylcyclobutyl]amino}pyrimidin-4-yl)amino]-6′H-spiro[cyclohexane-1,7′-pyrrolo[3,4-b]pyridin]-1′-ium-1′-olate], for which the values for the concentration for half-maximal inhibition (IC50) in the assay on TMD-8 cell p-IF4E and at MNK2 were 10 to 100 nM and 0.1 to 10 nM, respectively.
On to `Cc1cc(Nc2cc(Nc3ccon3)ncn2)[n+]([O-])c2c1C(=O)NC21CCCCC1` [Compound XXIX-AAD, 2′-((6-(isoxazol-3-ylamino)pyrimidin-4-yl)amino)-4′-methyl-5′-oxo-5′,6′-dihydrospiro[cyclohexane-1,7′-pyrrolo[3,4-b]pyridine] 1′-oxide], for which the half-inhibitory concentration (IC50) with TMD-8 cell p-IF4E (Homo sapiens, TMD8, 40 min) lay within 0.1 to 10 nM; on MNK2, 0.1 to 10 nM.
For `CO[C@H]1C[C@@H](Nc2cc(Nc3cc(C)c4c([n+]3[O-])C3(CCCCC3)NC4=O)ncn2)C1` [Compound XXIX-AAE, 2′-((6-((cis-3-methoxycyclobutyl)amino)pyrimidin-4-yl)amino)-4′-methyl-5′-oxo-5′,6′-dihydrospiro[cyclohexane-1,7′-pyrrolo[3,4-b]pyridine] 1′-oxide], the IC50 in the assay on TMD-8 cell p-IF4E (Homo sapiens, TMD8, 40 min) lay within 0.1 to 10 nM; on MNK2 it was 0.1 to 10 nM.
On to `Cc1ccnc(Nc2cc(Nc3cc(C)c4c([n+]3[O-])C3(CCCCC3)NC4=O)ncn2)c1` [Compound XXIX-AAI, 4′-methyl-2′-((6-((4-methylpyridin-2-yl)amino)pyrimidin-4-yl)amino)-5′-oxo-5′,6′-dihydrospiro[cyclohexane-1,7′-pyrrolo[3,4-b]pyridine] 1′-oxide], for which the IC50 in the assay with TMD-8 cell p-IF4E (Homo sapiens, TMD8, 40 min) lay within 0.1 to 10 nM; at MNK2 it was 0.1 to 10 nM.
With `Cc1cc(Nc2cc(Nc3ccc(N4CCOCC4)cn3)ncn2)[n+]([O-])c2c1C(=O)NC21CCCCC1` [Compound XXIX-AAJ, 4′-methyl-2′-((6-((5-morpholinopyridin-2-yl)amino)pyrimidin-4-yl)amino)-5′-oxo-5′,6′-dihydrospiro[cyclohexane-1,7′-pyrrolo[3,4-b]pyridine] 1′-oxide], the IC50 in the assay with TMD-8 cell p-IF4E (Homo sapiens, TMD8, 40 min) lay within 0.1 to 10 nM; on MNK2, 0.1 to 10 nM.
In the case of `Cc1cc(Nc2cc(Nc3ccc(N4CCNCC4)cn3)ncn2)[n+]([O-])c2c1C(=O)NC21CCCCC1` [Compound XXIX-AAL, 4′-methyl-5′-oxo-2′-[(6-{[5-(piperazin-1-yl)pyridin-2-yl]amino}pyrimidin-4-yl)amino]-6′H-spiro[cyclohexane-1,7′-pyrrolo[3,4-b]pyridin]-1′-ium-1′-olate], the IC50 in the assay with TMD-8 cell p-IF4E (Homo sapiens, TMD8, 40 min) was in the range of 0.1 to 10 nM; at MNK2, 0.1 to 10 nM.
As for `Cc1cc(Nc2cc(Nc3ccc(N4CCCCC4)cn3)ncn2)[n+]([O-])c2c1C(=O)NC21CCCCC1` [Compound XXIX-AAM, 4′-methyl-5′-oxo-2′-((6-((5-(piperidin-1-yl)pyridin-2-yl)amino)pyrimidin-4-yl)amino)-5′,6′-dihydrospiro[cyclohexane-1,7′-pyrrolo[3,4-b]pyridine] 1′-oxide], the IC50 in the assay on TMD-8 cell p-IF4E (Homo sapiens, TMD8, 40 min) was in the range of 0.1 to 10 nM; at MNK2, 0.1 to 10 nM.
Turning to `Cc1cc(Nc2cc(Nc3ccc(N4C[C@@H](C)N[C@@H](C)C4)cn3)ncn2)[n+]([O-])c2c1C(=O)NC21CCCCC1` [Compound XXIX-AAN, 2′-((6-((5-(cis-3,5-dimethylpiperazin-1-yl)pyridin-2-yl)amino)pyrimidin-4-yl)amino)-4′-methyl-5′-oxo-5′,6′-dihydrospiro[cyclohexane-1,7′-pyrrolo[3,4-b]pyridine]1′-oxide], the concentration for half-maximal inhibition (IC50) with TMD-8 cell p-IF4E (Homo sapiens, TMD8, 40 min) was in the range of 0.1 to 10 nM; on MNK2 it was 0.1 to 10 nM.
As for `CCN1CCN(c2ccc(Nc3cc(Nc4cc(C)c5c([n+]4[O-])C4(CCCCC4)NC5=O)ncn3)nc2)CC1` [Compound XXIX-AAO, 2′-[(6-{[5-(4-ethylpiperazin-1-yl)pyridin-2-yl]amino}pyrimidin-4-yl)amino]-4′-methyl-5′-oxo-6′H-spiro[cyclohexane-1,7′-pyrrolo[3,4-b]pyridin]-1′-ium-1′-olate], the half-inhibitory concentration (IC50) in the assay on TMD-8 cell p-IF4E (Homo sapiens, TMD8, 40 min) lay in the range of 0.1 to 10 nM; on MNK2 it was 0.1 to 10 nM.
As to `Cc1cc(Nc2cc(Nc3ccc(N4CCN(CCO)CC4)cn3)ncn2)[n+]([O-])c2c1C(=O)NC21CCCCC1` [Compound XXIX-AAP, 2′-((6-((5-(4-(2-hydroxyethyl)piperazin-1-yl)pyridin-2-yl)amino)pyrimidin-4-yl)amino)-4′-methyl-5′-oxo-5′,6′-dihydrospiro[cyclohexane-1,7′-pyrrolo[3,4-b]pyridine]1′-oxide formate salt], the IC50 with TMD-8 cell p-IF4E (Homo sapiens, TMD8, 40 min) was in the range of 0.1 to 10 nM; on MNK2, 0.1 to 10 nM.
On to `Cc1cc(Nc2cc(Nc3ccn(C(C)C)n3)ncn2)[n+]([O-])c2c1C(=O)NC21CCCCC1` [Compound XXIX-AAQ, 2′-((6-((1-isopropyl-1H-pyrazol-3-yl)amino)pyrimidin-4-yl)amino)-4′-methyl-5′-oxo-5′,6′-dihydrospiro[cyclohexane-1,7′-pyrrolo[3,4-b]pyridine] 1′-oxide], for which the concentration for half-maximal inhibition (IC50) is 0.1 to 10 nM in the assay on TMD-8 cell p-IF4E (Homo sapiens, TMD8, 40 min) and 0.1 to 10 nM at MNK2.
Take `Cc1cc(Nc2cc(Nc3ncn(C)n3)ncn2)[n+]([O-])c2c1C(=O)NC21CCCCC1` [Compound XXIX-AD, 4′-methyl-2′-((6-((1-methyl-Ill-1,2,4-triazol-3-yl)amino)pyrimidin-4-yl)amino)-5′-oxo-5′,6′-dihydrospiro[cyclohexane-1,7′-pyrrolo[3,4-b]pyridine] 1′-oxide]: the IC50 lay within 10 to 100 nM in the assay with TMD-8 cell p-IF4E (Homo sapiens, TMD8, 40 min) and 0.1 to 10 nM at MNK2.
The corresponding values for `Cc1cc(Nc2cc(Nc3ccn(C(F)(F)F)n3)ncn2)[n+]([O-])c2c1C(=O)NC21CCCCC1` [Compound XXIX-AF, 4′-methyl-5′-oxo-2′-[(6-{[1-(trifluoromethyl)pyrazol-3-yl]amino}pyrimidin-4-yl)amino]-6′H-spiro[cyclohexane-1,7′-pyrrolo[3,4-b]pyridin]-1′-ium-1′-olate] are 0.1 to 10 nM and 0.1 to 10 nM.
In the case of `Cc1cc(Nc2cc(Nc3ccccc3)ncn2)[n+]([O-])c2c1C(=O)NC21CCCCC1` [Compound XXIX-AH, 4′-methyl-5′-oxo-2′-((6-(phenylamino)pyrimidin-4-yl)amino)-5′,6′-dihydrospiro[cyclohexane-1,7′-pyrrolo[3,4-b]pyridine] 1′-oxide], the IC50 with TMD-8 cell p-IF4E (Homo sapiens, TMD8, 40 min) lay within 0.1 to 10 nM; on MNK2, 0.1 to 10 nM.
For the compound `Cc1cccc(Nc2cc(Nc3cc(C)c4c([n+]3[O-])C3(CCCCC3)NC4=O)ncn2)n1` [Compound XXIX-AL, 4′-methyl-2′-((6-((6-methylpyridin-2-yl)amino)pyrimidin-4-yl)amino)-5′-oxo-5′,6′-dihydrospiro[cyclohexane-1,7′-pyrrolo[3,4-b]pyridine] 1′-oxide], the IC50 in the assay with TMD-8 cell p-IF4E (Homo sapiens, TMD8, 40 min) is 10 to 100 nM; at MNK2, 0.1 to 10 nM.
As to `Cc1cc(Nc2cc(Nc3ncc(F)cc3F)ncn2)[n+]([O-])c2c1C(=O)NC21CCCCC1` [Compound XXIX-AM, 2′-((6-((3,5-difluoropyridin-2-yl)amino)pyrimidin-4-yl)amino)-4′-methyl-5′-oxo-5′,6′-dihydrospiro[cyclohexane-1,7′-pyrrolo[3,4-b]pyridine] 1′-oxide], the half-maximal inhibitory concentration (IC50) was 10 to 100 nM with TMD-8 cell p-IF4E (Homo sapiens, TMD8, 40 min) and 0.1 to 10 nM at MNK2.
